Laboratory results: patent US11472803B2, “7-substituted 1-aryl-naphthyridine-3-carboxylic acid amides and use thereof” (Bayer Aktiengesellschaft, priority 2016, dated 2022)

Target: T1, human M2 receptor (Homo sapiens, UniProt P08172)
T1 construct: expressed in transfected cells; host or cells: CHO-DUKX (CHO-DUKX-M2-GIRK)
T1 sequence (P08172 1-466): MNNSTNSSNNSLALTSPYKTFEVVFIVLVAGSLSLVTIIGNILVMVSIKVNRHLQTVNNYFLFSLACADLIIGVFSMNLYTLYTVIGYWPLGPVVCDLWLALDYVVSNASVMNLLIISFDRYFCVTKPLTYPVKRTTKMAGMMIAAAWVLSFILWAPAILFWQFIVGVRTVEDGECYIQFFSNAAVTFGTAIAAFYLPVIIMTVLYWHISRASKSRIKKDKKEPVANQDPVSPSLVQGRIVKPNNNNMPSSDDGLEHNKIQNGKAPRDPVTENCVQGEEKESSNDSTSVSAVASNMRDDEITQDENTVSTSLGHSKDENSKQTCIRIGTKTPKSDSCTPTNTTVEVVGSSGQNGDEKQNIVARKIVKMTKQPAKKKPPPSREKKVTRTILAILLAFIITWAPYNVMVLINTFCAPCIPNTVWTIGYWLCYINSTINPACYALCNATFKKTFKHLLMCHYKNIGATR
Experiment: Functional M2-GIRK1/4 activation test: allosteric potency (EC50) and efficiency at EC20 acetylcholine
Type: cell-based
Conditions: CHO-DUKX-M2-GIRK cells; for EC50: voltage-sensitive dye, acetylcholine at EC20, in some cases mean of two or more determinations; for Emax: boosting of the acetylcholine effect at EC20 acetylcholine concentration
Outline: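 CHO-DUKX cells stably expressing human M2 and GIRK1/4; membrane potential tracked with voltage-sensitive dye at room temperature. Compound added 50 s before acetylcholine at its EC20, then hyperpolarization read 60 s. EC50 (allosteric potency) and efficiency (boost of EC20 ACh effect) from 4-parameter Hill fit.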

EC50	Emax	Structure (SMILES)
0.0059 µM	100%	O=C(N[C@@H](C1CC1)C(F)(F)F)c1cn(-c2c(F)cc(F)cc2Cl)c2nc(N3CC(CO)(CO)C3)c(F)cc2c1=O [Example 69, 7-[3,3-Bis(hydroxymethyl)azetidin-1-yl]-1-(2-chloro-4,6-difluorophenyl)-N-[(1S)-1-cyclopropyl-2,2,2-trifluoroethyl]-6-fluoro-4-oxo-1,4-dihydro-1,8-naphthyridine-3-carboxamide]
0.011 µM	89%	C[C@H](O)CN(C)c1nc2c(cc1F)c(=O)c(C(=O)N[C@@H](C1CC1)C(F)(F)F)cn2-c1c(F)cc(F)cc1Cl [Example 72, 1-(2-Chloro-4,6-difluorophenyl)-N-[(1S)-1-cyclopropyl-2,2,2-trifluoroethyl]-6-fluoro-7-{[(2S)-2-hydroxypropyl](methyl)amino}-4-oxo-1,4-dihydro-1,8-naphthyridine-3-carboxamide]
0.024 µM	100%	CC(C)(C)NC(=O)c1cn(-c2c(F)cc(F)cc2F)c2nc(N3C[C@@H](O)[C@@H](O)C3)c(F)cc2c1=O [Example 80, N-tert-Butyl-7-[(3R,4S)-3,4-dihydroxypyrrolidin-1-yl]-6-fluoro-4-oxo-1-(2,4,6-trifluoro-phenyl)-1,4-dihydro-1,8-naphthyridine-3-carboxamide]
0.15 µM	87%	O=C(N[C@@H](C1CC1)C(F)(F)F)c1cn(-c2c(F)cc(F)cc2F)c2nc(N3CCNCC3)c(F)cc2c1=O [Example 81, N-[(1S)-1-Cyclopropyl-2,2,2-trifluoroethyl]-6-fluoro-4-oxo-7-(piperazin-1-yl)-1-(2,4,6-trifluorophenyl)-1,4-dihydro-1,8-naphthyridine-3-carboxamide]
0.14 µM	65%	C[C@H]1CN(c2nc3c(cc2F)c(=O)c(C(=O)N[C@@H](C2CC2)C(F)(F)F)cn3-c2c(F)cc(F)cc2F)CCN1 [Example 82, N-[(1S)-1-Cyclopropyl-2,2,2-trifluoroethyl]-6-fluoro-7-[(3S)-3-methylpiperazin-1-yl]-4-oxo-1-(2,4,6-trifluorophenyl)-1,4-dihydro-1,8-naphthyridine-3-carboxamide]
0.044 µM	94%	O=C(N[C@@H](C1CC1)C(F)(F)F)c1cn(-c2c(F)cc(F)cc2F)c2nc(N3CC4(COC4)C3)c(F)cc2c1=O [Example 83, N-[(1S)-1-Cyclopropyl-2,2,2-trifluoroethyl]-6-fluoro-7-(2-oxa-6-azaspiro[3.3]hept-6-yl)-4-oxo-1-(2,4,6-trifluorophenyl)-1,4-dihydro-1,8-naphthyridine-3-carboxamide]

Further lines, the compound ahead of its results:

Structure (SMILES)	EC50	Emax
CCC(C)(C)NC(=O)c1cn(-c2c(F)cc(F)cc2Cl)c2nc(N3C[C@@H](O)[C@H](O)C3)c(F)cc2c1=O [Example 73, 1-(2-Chloro-4,6-difluorophenyl)-7-[(3R,4R)-3,4-dihydroxypyrrolidin-1-yl]-6-fluoro-N-(2-methylbutan-2-yl)-4-oxo-1,4-dihydro-1,8-naphthyridine-3-carboxamide]	0.0027 µM	94%
CC(C)(C)NC(=O)c1cn(-c2c(F)cc(F)cc2Cl)c2nc(N3C[C@@H](O)[C@H](O)C3)c(F)cc2c1=O [Example 74, N-tert-Butyl-1-(2-chloro-4,6-difluorophenyl)-7-[(3R,4R)-3,4-dihydroxypyrrolidin-1-yl]-6-fluoro-4-oxo-1,4-dihydro-1,8-naphthyridine-3-carboxamide]	0.0039 µM	95%
CCC(C)(C)NC(=O)c1cn(-c2ncc(F)cc2F)c2nc(N3C[C@@H](O)[C@H](O)C3)c(F)cc2c1=O [Example 75, 1-(3,5-Difluoropyridin-2-yl)-7-[(3R,4R)-3,4-dihydroxypyrrolidin-1-yl]-6-fluoro-N-(2-methyl-butan-2-yl)-4-oxo-1,4-dihydro-1,8-naphthyridine-3-carboxamide]	0.087 µM	100%
CCC(C)(CC)NC(=O)c1cn(-c2ncc(F)cc2F)c2nc(N3C[C@@H](O)[C@H](O)C3)c(F)cc2c1=O [Example 76, 1-(3,5-Difluoropyridin-2-yl)-7-[(3R,4R)-3,4-dihydroxypyrrolidin-1-yl]-6-fluoro-N-(3-methylpentan-3-yl)-4-oxo-1,4-dihydro-1,8-naphthyridine-3-carboxamide]	0.029 µM	100%
CCC(CC)(CC)NC(=O)c1cn(-c2c(F)cc(F)cc2F)c2nc(N3C[C@@H](O)[C@@H](O)C3)c(F)cc2c1=O [Example 77, 7-[(3R,4S)-3,4-Dihydroxypyrrolidin-1-yl]-N-(3-ethylpentan-3-yl)-6-fluoro-4-oxo-1-(2,4,6-tri-fluorophenyl)-1,4-dihydro-1,8-naphthyridine-3-carboxamide]	0.0016 µM	100%
CCC(C)(CC)NC(=O)c1cn(-c2c(F)cc(F)cc2F)c2nc(N3C[C@@H](O)[C@@H](O)C3)c(F)cc2c1=O [Example 78, 7-[(3R,4S)-3,4-Dihydroxypyrrolidin-1-yl]-6-fluoro-N-(3-methylpentan-3-yl)-4-oxo-1-(2,4,6-trifluorophenyl)-1,4-dihydro-1,8-naphthyridine-3-carboxamide]	0.0028 µM	100%
CCC(C)(C)NC(=O)c1cn(-c2c(F)cc(F)cc2F)c2nc(N3C[C@@H](O)[C@@H](O)C3)c(F)cc2c1=O [Example 79, 7-[(3R,4S)-3,4-Dihydroxypyrrolidin-1-yl]-6-fluoro-N-(2-methylbutan-2-yl)-4-oxo-1-(2,4,6-tri-fluorophenyl)-1,4-dihydro-1,8-naphthyridine-3-carboxamide]	0.0093 µM	99%
CC(C)(C)OC(=O)N1CCC(NC(=O)c2cn(-c3c(F)cc(F)cc3F)c3nc(N4C[C@@H](O)[C@H](O)C4)c(F)cc3c2=O)C(F)(F)C1 (stereo partly drawn) [Example 85, tert-Butyl 4-[({7-[(3R,4R)-3,4-dihydroxypyrrolidin-1-yl]-6-fluoro-4-oxo-1-(2,4,6-trifluoro-phenyl)-1,4-dihydro-1,8-naphthyridin-3-yl}carbonyl)amino]-3,3-difluoropiperidine-1-carboxylate]	0.033 µM	100%
COC(=O)C12CCC(NC(=O)c3cn(-c4c(F)cc(F)cc4F)c4nc(N5C[C@@H](O)[C@H](O)C5)c(F)cc4c3=O)(CC1)C2 [Example 86, Methyl 4-[({7-[(3R,4R)-3,4-dihydroxypyrrolidin-1-yl]-6-fluoro-4-oxo-1-(2,4,6-trifluoro-phenyl)-1,4-dihydro-1,8-naphthyridin-3-yl}carbonyl)amino]bicyclo[2.2.1]heptane-1-carboxylate]	0.014 µM	95%
CCC(CC)(CC)NC(=O)c1cn(-c2c(F)cc(F)cc2F)c2nc(N3C[C@@H](O)[C@H](O)C3)c(F)cc2c1=O [Example 87, 7-[(3R,4R)-3,4-Dihydroxypyrrolidin-1-yl]-N-(3-ethylpentan-3-yl)-6-fluoro-4-oxo-1-(2,4,6-tri-fluorophenyl)-1,4-dihydro-1,8-naphthyridine-3-carboxamide]	0.0014 µM	100%
CCC(C)(CC)NC(=O)c1cn(-c2c(F)cc(F)cc2F)c2nc(N3C[C@@H](O)[C@H](O)C3)c(F)cc2c1=O [Example 88, 7-[(3R,4R)-3,4-Dihydroxypyrrolidin-1-yl]-6-fluoro-N-(3-methylpentan-3-yl)-4-oxo-1-(2,4,6-trifluorophenyl)-1,4-dihydro-1,8-naphthyridine-3-carboxamide]	0.0022 µM	100%
